How the values were obtained:
hERG channel = molecular target: T1, hERG channel (Homo sapiens, UniProt Q12809); assay: hERG electrophysiology, automated whole-cell patch clamp (Patchliner) in CHO-K1 cells stably expressing hERG; type: cell-based; settings: 30 nM-100 μM
T1 construct: expressed in transfected cells
Protocol: This assay is used to evaluate the disclosed compounds' inhibition activities against the hERG channel.
CHO-K1 cells stably expressing hERG were grown in Ham's F-12 Medium with glutamine containing 10% heat-inactivated FBS, 1% penicillin/streptomycin, hygromycin (100 μg/ml) and G418 (100 μg/ml). Cells were grown in culture flasks at 37° C. in a 5% CO2-humidified incubator.
The cells were bathed in an extracellular solution containing 140 mM NaCl, 4 mM KCl, 2 mM CaCl2), 1 mM MgCl2, 5 mM Glucose, 10 mM HEPES; pH adjusted to 7.4 with NaOH; 295-305 mOsm. The internal solution contained 50 mM KCl, 10 mM NaCl, 60 mM KF, 20 mM EGTA, 10 mM HEPES; pH adjusted to 7.2 with KOH; 285 mOsm. All compounds were dissolved in DMSO at 30 mM. Compound stock solutions were freshly diluted with external solution to concentrations of 30 nM, 100 nM, 300 nM, 1 μM, 3 μM, 10 μM, 30 μM and 100 μM. The highest content of DMSO (0.3%) was present in 100 μM.
The voltage protocol (see Table B) was designed to simulate voltage changes during a cardiac action potential with a 300 ms depolarization to +20 mV (analogous to the plateau phase of the cardiac action potential), a repolarization for 300 ms to −50 mV (inducing a tail current) and a final step to the holding potential of −80 mV. The pulse frequency was 0.3 Hz. Control (compound-free) and compound pulse trains for each compound concentration applied contained 70 pulses.
Whole-cell current recordings and compound application were enabled by means of an automated patch clamp platform Patchliner (Nanion). EPC 10 patch clamp amplifier (HEKA) along with Patchmaster software (HEKA Elektronik Dr. Schulze GmbH) was used for data acquisition. Data were sampled at 10 kHz without filtering. Increasing compound concentrations were applied consecutively to the same cell without washouts in between.
AUC and PEAK values were obtained with Patchmaster (HEKA Elektronik Dr. Schulze GmbH). To determine IC50 the last single pulse in the pulse train corresponding to a given compound concentration was used. Obtained AUC and PEAK values in the presence of compound were normalized to control values in the absence of compound. Using Origin (OridinLab), IC50 was derived from data fit to Hill equation: Icompound/Icontrol=(100−A)/(1+([compound]/IC50)nH)+A, where IC50 is the concentration at which current inhibition is half-maximal, [compound] is the applied compound concentration, A is the fraction of current that is not blocked and nH is the Hill coefficient.

Kv1.3 potassium channel = molecular target: T2, Kv1.3 potassium channel (Homo sapiens, UniProt P22001); assay: Kv1.3 potassium channel blocker activity, automated whole-cell patch clamp (Patchliner) in CHO-K1 cells stably expressing Kv1.3; type: cell-based; settings: 30 nM-100 μM
T2 construct: expressed in transfected cells
Method in brief: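 Whole-cell automated patch clamp in CHO-K1 cells, pH 7.4 external/7.2 internal; 100 ms steps from −90 to +40 mV at 0.1 Hz, 20-pulse trains. Cumulative 30 nM–100 μM on one cell, ≤10 s per concentration; last-pulse current normalized to control, IC50 from Hill fit.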

T1 sequence (Q12809 whole entry): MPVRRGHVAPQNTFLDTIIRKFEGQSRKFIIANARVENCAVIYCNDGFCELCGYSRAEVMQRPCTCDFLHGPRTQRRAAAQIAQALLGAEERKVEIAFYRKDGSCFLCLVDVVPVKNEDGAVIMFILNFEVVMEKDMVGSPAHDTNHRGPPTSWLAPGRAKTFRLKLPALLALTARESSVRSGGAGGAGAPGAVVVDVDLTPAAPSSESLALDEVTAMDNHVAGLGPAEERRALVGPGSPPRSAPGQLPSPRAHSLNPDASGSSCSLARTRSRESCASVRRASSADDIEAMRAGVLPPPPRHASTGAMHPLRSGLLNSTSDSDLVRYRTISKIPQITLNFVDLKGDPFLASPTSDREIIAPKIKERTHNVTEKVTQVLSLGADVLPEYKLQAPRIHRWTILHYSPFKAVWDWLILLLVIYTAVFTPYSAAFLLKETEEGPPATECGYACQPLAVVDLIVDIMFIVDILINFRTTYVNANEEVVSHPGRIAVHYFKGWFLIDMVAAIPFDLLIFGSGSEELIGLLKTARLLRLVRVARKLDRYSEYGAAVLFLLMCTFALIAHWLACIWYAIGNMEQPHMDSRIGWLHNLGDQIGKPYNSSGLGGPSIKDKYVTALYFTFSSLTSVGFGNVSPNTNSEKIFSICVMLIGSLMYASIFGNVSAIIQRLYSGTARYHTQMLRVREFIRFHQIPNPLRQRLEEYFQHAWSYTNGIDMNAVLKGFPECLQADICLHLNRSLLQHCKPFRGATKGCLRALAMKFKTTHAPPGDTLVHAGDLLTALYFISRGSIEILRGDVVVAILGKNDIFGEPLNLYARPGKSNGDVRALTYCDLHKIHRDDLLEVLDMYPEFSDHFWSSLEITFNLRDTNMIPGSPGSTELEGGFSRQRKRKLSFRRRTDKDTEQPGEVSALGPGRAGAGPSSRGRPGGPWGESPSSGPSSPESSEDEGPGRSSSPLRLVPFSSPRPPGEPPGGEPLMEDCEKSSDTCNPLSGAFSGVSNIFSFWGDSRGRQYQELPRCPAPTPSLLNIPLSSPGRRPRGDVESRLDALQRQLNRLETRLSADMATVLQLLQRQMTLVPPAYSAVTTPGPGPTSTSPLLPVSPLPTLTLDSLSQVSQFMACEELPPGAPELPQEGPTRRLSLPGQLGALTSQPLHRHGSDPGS
T2 sequence (P22001 whole entry): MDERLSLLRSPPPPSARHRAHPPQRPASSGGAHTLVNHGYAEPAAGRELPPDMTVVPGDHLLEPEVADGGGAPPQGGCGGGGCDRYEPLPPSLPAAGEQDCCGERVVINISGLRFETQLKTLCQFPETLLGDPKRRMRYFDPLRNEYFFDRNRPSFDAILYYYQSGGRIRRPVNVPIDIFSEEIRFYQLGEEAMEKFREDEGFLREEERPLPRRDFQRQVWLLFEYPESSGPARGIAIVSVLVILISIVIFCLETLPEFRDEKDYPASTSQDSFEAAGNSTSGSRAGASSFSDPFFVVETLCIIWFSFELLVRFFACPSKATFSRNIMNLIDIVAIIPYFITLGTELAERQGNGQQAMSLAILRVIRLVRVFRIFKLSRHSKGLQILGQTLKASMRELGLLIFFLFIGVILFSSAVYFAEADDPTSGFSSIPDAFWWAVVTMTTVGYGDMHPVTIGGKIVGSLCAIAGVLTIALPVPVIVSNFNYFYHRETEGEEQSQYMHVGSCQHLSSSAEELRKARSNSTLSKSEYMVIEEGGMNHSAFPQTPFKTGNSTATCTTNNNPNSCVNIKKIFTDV

Question: Which IC50 (hERG channel) does the source give for `O=C([C@@H]1CCCNC1)N1CC[C@]2(C1)C(=O)Nc1cc(Cl)c(Cl)cc12` [Compound 17, (S)-5,6-dichloro-1′-((R)-piperidine-3-carbonyl)spiro[indoline-3,3′-pyrrolidin]-2-one] here?
Answer: > 100 µM

Question: And the IC50 (Kv1.3 potassium channel)?
Answer: < 0.3 µM
